Laboratory results: patent US9695155B2, “Herbicidal substituted pyrimidinyloxy benzene compounds” (E. I. DU PONT DE NEMOURS AND COMPANY, priority 2013, dated 2017)

Assays:
barnyardgrass [1] = assay: Test A postemergence; type: in vivo, Echinochloa crus-galli
Procedure, shortened: (§1)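 Visual 0–100 rating (100 = complete control) taken about 10 d post-treatment relative to untreated checks. Preemergence: directed soil spray on sown loam/sand pots. Postemergence: seedlings 2–10 cm, 1–2 leaf. Non-phytotoxic solvent formulation with surfactant.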

corn [2] = assay: Test A postemergence; type: in vivo, Zea mays
Procedure, shortened: as §1

giant foxtail [3] = assay: Test A preemergence; type: in vivo, Setaria faberii; conditions: for Foxtail, Giant plant response rating: 500 g ai/ha
Procedure, shortened: as §1

large (Lg) crabgrass [4] = assay: Test A preemergence; type: in vivo, Digitaria sanguinalis; conditions: for Crabgrass, Large plant response rating: 500 g ai/ha
Procedure, shortened: as §1

pigweed [5] = assay: Test A postemergence; type: in vivo, Amaranthus retroflexus
Procedure, shortened: as §1

Heteranthera limosa = assay: Test B flooded paddy test; type: in vivo; conditions: Flood, 250 g ai/ha; 0 to 100 scale where 0 is no effect and 100 is complete control
Procedure, shortened: (§2)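 2-leaf stage plants; pots flooded to 3 cm, compound added to paddy water, depth maintained. Greenhouse 13–15 d. Visual rating vs untreated controls, 0 (no effect) to 100 (complete control); dash = no result.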

velvetleaf [6] = assay: Test A preemergence; type: in vivo, Abutilon theophrasti; conditions: for Velvetleaf plant response rating: 500 g ai/ha
Procedure, shortened: as §1

wheat [7] = assay: Test A postemergence; type: in vivo, Triticum aestivum
Procedure, shortened: as §1

morningglory [8] = assay: Test A preemergence; type: in vivo, Ipomoea spp.; conditions: for Morningglory plant response rating: 500 g ai/ha
Procedure, shortened: as §1

large (Lg) crabgrass [9] = assay: Test A postemergence; type: in vivo, Digitaria sanguinalis
Procedure, shortened: as §1

giant foxtail [10] = assay: Test A postemergence; type: in vivo, Setaria faberii
Procedure, shortened: as §1

rice = assay: Test B flooded paddy test; type: in vivo, Oryza sativa; conditions: Flood, 250 g ai/ha; 0 to 100 scale where 0 is no effect and 100 is complete control
Procedure, shortened: as §2

corn [11] = assay: Test A preemergence; type: in vivo, Zea mays; conditions: for Corn plant response rating: 500 g ai/ha
Procedure, shortened: as §1

morningglory [12] = assay: Test A postemergence; type: in vivo, Ipomoea spp.
Procedure, shortened: as §1

barnyardgrass [13] = assay: Test A preemergence; type: in vivo, Echinochloa crus-galli; conditions: for Barnyardgrass plant response rating: 500 g ai/ha
Procedure, shortened: as §1

wheat [14] = assay: Test A preemergence; type: in vivo, Triticum aestivum; conditions: for Wheat plant response rating: 500 g ai/ha
Procedure, shortened: as §1

barnyardgrass [15] = assay: Test B flooded paddy test; type: in vivo, Echinochloa crus-galli; conditions: Flood, 250 g ai/ha; 0 to 100 scale where 0 is no effect and 100 is complete control
Procedure, shortened: as §2

pigweed [16] = assay: Test A preemergence; type: in vivo, Amaranthus retroflexus; conditions: for Pigweed plant response rating: 500 g ai/ha
Procedure, shortened: as §1

sedge, umbrella = assay: Test B flooded paddy test; type: in vivo, Cyperus difformis; conditions: Flood, 250 g ai/ha; 0 to 100 scale where 0 is no effect and 100 is complete control
Procedure, shortened: as §2

velvetleaf [17] = assay: Test A postemergence; type: in vivo, Abutilon theophrasti
Procedure, shortened: as §1

[18] = 125 g ai/ha, 0 to 100 scale, 0 no effect, 100 complete control
[19] = 500 g ai/ha, 0 to 100 scale where 0 is no effect and 100 is complete control
[20] = 0 to 100 scale where 0 is no effect and 100 is complete control
[21] = 125 g ai/ha, 0 to 100 scale where 0 is no effect and 100 is complete control
[22] = 500 g ai/ha, 0 to 100 scale, 0 no effect, 100 complete control
[23] = 0 to 100 scale, 0 no effect, 100 complete control, approx. 10 days

CNN=Cc1cccc(Oc2ncc(Cl)cn2)c1-n1cc(Cl)cn1 [Compound 296]
10: Plant response rating, Corn (corn [2]; [19]) | Foxtail, Giant plant response rating (giant foxtail [3]; [20]) | Velvetleaf plant response rating (velvetleaf [6]; [20]) | Barnyardgrass plant response rating (barnyardgrass [13]; [20])
90: Pigweed plant response rating (pigweed [16]; [20])
100: Plant response rating, Pigweed (pigweed [5]; [19])
60: Crabgrass, Large plant response rating (large (Lg) crabgrass [4]; [20])
0: Plant response rating, Barnyardgrass (barnyardgrass [1]; [18]) | Plant response rating, Barnyardgrass (barnyardgrass [1]; [19]) | Plant response rating, Corn (corn [2]; [18]) | Foxtail, Giant plant response rating (0 to 100 scale) (giant foxtail [3]; 125 g ai/ha) | Crabgrass, Large plant response rating (0 to 100 scale) (large (Lg) crabgrass [4]; 125 g ai/ha) | Plant response rating, Ducksalad (Heteranthera limosa) | Velvetleaf plant response rating (0 to 100 scale) (velvetleaf [6]; 125 g ai/ha) | Plant response rating, Wheat (wheat [7]; [18]) | Morningglory plant response rating (0 to 100 scale) (morningglory [8]; 125 g ai/ha) | Morningglory plant response rating (morningglory [8]; [20]) | Plant response rating, Crabgrass, Large (large (Lg) crabgrass [9]; [18]) | Plant response rating, Crabgrass, Large (large (Lg) crabgrass [9]; [19]) | Plant response rating, Foxtail, Giant (giant foxtail [10]; [18]) | Plant response rating, Foxtail, Giant (giant foxtail [10]; [19]) | Plant response rating, Rice (rice) | Corn plant response rating (0 to 100 scale) (corn [11]; 125 g ai/ha) | Corn plant response rating (corn [11]; [20]) | Barnyardgrass plant response rating (0 to 100 scale, 0 is no effect, 100 is complete control) (barnyardgrass [13]; 125 g ai/ha) | Wheat plant response rating (0 to 100 scale) (wheat [14]; 125 g ai/ha) | Wheat plant response rating (wheat [14]; [20]) | Plant response rating, Barnyardgrass (barnyardgrass [15]) | Pigweed plant response rating (0 to 100 scale) (pigweed [16]; 125 g ai/ha) | Plant response rating, Sedge, Umbrella (sedge, umbrella)
30: Plant response rating, Pigweed (pigweed [5]; [18]) | Plant response rating, Velvetleaf (velvetleaf [17]; [18]) | Plant response rating, Velvetleaf (velvetleaf [17]; [19])
20: Plant response rating, Wheat (wheat [7]; [19]) | Plant response rating, Morningglory (morningglory [12]; [18]) | Plant response rating, Morningglory (morningglory [12]; [19])

Brc1cnc(Oc2ccccc2-n2cc(Br)c(Br)n2)nc1 [Compound 24]
35: Plant response rating, Rice (rice)
0: Plant response rating, Barnyardgrass (barnyardgrass [1]; [21]) | Plant response rating, Barnyardgrass (barnyardgrass [1]; [22]) | Plant response rating, Corn (corn [2]; [21]) | Plant response rating, Corn (corn [2]; [22]) | Plant response rating, Foxtail, Giant (giant foxtail [3]; [21]) | Foxtail, Giant plant response rating (giant foxtail [3]; [23]) | Plant response rating, Crabgrass, Large (large (Lg) crabgrass [4]; [21]) | Crabgrass, Large plant response rating (large (Lg) crabgrass [4]; [23]) | Plant response rating, Pigweed (pigweed [5]; [21]) | Plant response rating, Ducksalad (Heteranthera limosa) | Plant response rating, Velvetleaf (velvetleaf [6]; [21]) | Velvetleaf plant response rating (velvetleaf [6]; [23]) | Plant response rating, Wheat (wheat [7]; [21]) | Plant response rating, Wheat (wheat [7]; [22]) | Plant response rating, Morningglory (morningglory [8]; [21]) | Morningglory plant response rating (morningglory [8]; [23]) | Plant response rating, Crabgrass, Large (large (Lg) crabgrass [9]; [21]) | Plant response rating, Crabgrass, Large (large (Lg) crabgrass [9]; [22]) | Plant response rating, Foxtail, Giant (giant foxtail [10]; [21]) | Plant response rating, Foxtail, Giant (giant foxtail [10]; [22]) | Plant response rating, Corn (corn [11]; [21]) | Corn plant response rating (corn [11]; [23]) | Plant response rating, Morningglory (morningglory [12]; [21]) | Plant response rating, Morningglory (morningglory [12]; [22]) | Plant response rating, Barnyardgrass (barnyardgrass [13]; [21]) | Barnyardgrass plant response rating (barnyardgrass [13]; [23]) | Plant response rating, Wheat (wheat [14]; [21]) | Wheat plant response rating (wheat [14]; [23]) | Plant response rating, Barnyardgrass (barnyardgrass [15]) | Plant response rating, Pigweed (pigweed [16]; [21]) | Pigweed plant response rating (pigweed [16]; [23]) | Plant response rating, Velvetleaf (velvetleaf [17]; [22])
60: Plant response rating, Pigweed (pigweed [5]; [22]) | Plant response rating, Sedge, Umbrella (sedge, umbrella)
